These results are taken from patent US20070167488A1, “Novel therapeutic use” (Leo Pharma A/S, priority 2003, published 2007).

One test addresses JAK-2 kinase (Mus musculus, UniProt Q62120). The conditions noted are these: J. J. Bright et al., J. Immunol. 162, 1999; cited from earlier work.
Test [1] deals with lymphocyte adhesion to inflamed vessels. Conditions: G. Constantin et al., J. Immunol. 162, 1999; cited from earlier work.
In test [2] the test system is EAE induced in SJL/J mice with a peptide from myelin proteolipid protein (PLP139-153). Briefly: EAE model in SJL/J mice immunized with PLP139-153 peptide. The test is classed as in vivo, mouse.
The test system of a further test is IL-2. Description: IL-2 production by spleen cells of immunized, dosed mice after in vitro restimulation with PLP139-153. The test is classed as cell-based, mouse.
The next test concerns IFN-γ. Briefly: IFN-γ production by spleen cells of immunized, dosed mice after in vitro restimulation with PLP139-153. The conditions noted are these: example 6; 50 mg/kg i.p. daily for 10 days, vs vehicle treated group; listed as compound 226. The test is classed as cell-based, mouse.
The test system of the next test is IL-6. Briefly: IL-6 production by spleen cells of immunized, dosed mice after in vitro restimulation with PLP139-153. The class given is cell-based, mouse. Conditions: example 6; 50 mg/kg i.p. daily for 10 days, vs vehicle treated group; listed as compound 226.
A further test concerns IL-17. Description: IL-17 production by spleen cells of immunized, dosed mice after in vitro restimulation with PLP139-153. The test is classed as cell-based, mouse. The conditions noted are these: example 6; 50 mg/kg i.p. daily for 10 days, vs vehicle treated group; listed as compound 226.
In test [3] the test system is EAE in C57BL/6 mice immunized with a peptide from myelin oligodendrocyte glycoprotein (MOG35-55). Description: Second EAE model: C57BL/6JBom mice immunized with MOG35-55 peptide. The test is classed as in vivo, mouse.
The test system of test [4] is gene expression in inflammatory cells in the spleen. Briefly: Oligonucleotide array of spleen cDNA from treated and control EAE mice. The class given is in vivo, mouse. The protocol:
Control mice were given suspension vehicle as described in example 1. On day 7 after treatment, the mice (both treated and control) were sacrificed and their spleens were excised, submerged into the RNA storage solution RNA-later (Sigma-Aldrich, St. Louis, USA) and stored at −80° C. Total RNA was extracted from the mouse spleens using the TRIZOL extraction procedure according to the manufacturer's protocol followed by DNAse treatment (Invitrogen, Carlsbad, Calif., USA). The RNA quality was visualized by agarose gel electrophoresis. Ten μg total RNA was converted into purified ^33P-labelled cDNA probe according to the Atlas Pure Total RNA labelling protocol (BD Biosciences, Palo Alto, Calif., USA).
Labelled probes (10×10^6 CPM) were denatured at 95° C. for 2 minutes and cooled at 4° C. for 2 minutes prior to hybridization to oligonucleotide arrays comprising about 5.000 mouse genes in duplicate dots (Atlas Plastic Mouse 5K MicroArray, BD Biosciences, Palo Alto, Calif., USA). Arrays were hybridized for 16 h at 60° C. with rotation according to the manufacturer's protocol. After hybridization and appropriate washing steps, the arrays were imaged using phospho imager technology together with a STORM 860 scanner (Molecular Dynamics, Sunnyvale, Calif., USA). Subsequently, the images were analysed using the Atlas Image 2.7 software (BD Biosciences, Palo Alto, Calif., USA).

The mark [5] stands for this setting: Exp. 1, terminated day 21, 50 mg/kg i.p. daily.
[6] abbreviates: Exp. 2, terminated day 21, 4 mg/kg i.p. daily.
The mark [7] stands for this setting: Exp. 2, terminated day 21, 10 mg/kg i.p. daily.
The mark [8] stands for this setting: Exp. 2, terminated day 21, 25 mg/kg i.p. daily.
Setting [9] is: Exp. 2, terminated day 21, 50 mg/kg i.p. daily.
The mark [10] stands for this setting: Exp. 3, terminated day 28, 25 mg/kg i.p. daily.
[11] abbreviates: Exp. 3, terminated day 28, 50 mg/kg i.p. daily.
Setting [12] is: Exp. 4, terminated day 35, 50 mg/kg i.p. daily.
Setting [13] is: MOG35-55, day 0-21, 50 mg/kg i.p. daily.

Chain of JAK-2 kinase (Q62120 whole entry): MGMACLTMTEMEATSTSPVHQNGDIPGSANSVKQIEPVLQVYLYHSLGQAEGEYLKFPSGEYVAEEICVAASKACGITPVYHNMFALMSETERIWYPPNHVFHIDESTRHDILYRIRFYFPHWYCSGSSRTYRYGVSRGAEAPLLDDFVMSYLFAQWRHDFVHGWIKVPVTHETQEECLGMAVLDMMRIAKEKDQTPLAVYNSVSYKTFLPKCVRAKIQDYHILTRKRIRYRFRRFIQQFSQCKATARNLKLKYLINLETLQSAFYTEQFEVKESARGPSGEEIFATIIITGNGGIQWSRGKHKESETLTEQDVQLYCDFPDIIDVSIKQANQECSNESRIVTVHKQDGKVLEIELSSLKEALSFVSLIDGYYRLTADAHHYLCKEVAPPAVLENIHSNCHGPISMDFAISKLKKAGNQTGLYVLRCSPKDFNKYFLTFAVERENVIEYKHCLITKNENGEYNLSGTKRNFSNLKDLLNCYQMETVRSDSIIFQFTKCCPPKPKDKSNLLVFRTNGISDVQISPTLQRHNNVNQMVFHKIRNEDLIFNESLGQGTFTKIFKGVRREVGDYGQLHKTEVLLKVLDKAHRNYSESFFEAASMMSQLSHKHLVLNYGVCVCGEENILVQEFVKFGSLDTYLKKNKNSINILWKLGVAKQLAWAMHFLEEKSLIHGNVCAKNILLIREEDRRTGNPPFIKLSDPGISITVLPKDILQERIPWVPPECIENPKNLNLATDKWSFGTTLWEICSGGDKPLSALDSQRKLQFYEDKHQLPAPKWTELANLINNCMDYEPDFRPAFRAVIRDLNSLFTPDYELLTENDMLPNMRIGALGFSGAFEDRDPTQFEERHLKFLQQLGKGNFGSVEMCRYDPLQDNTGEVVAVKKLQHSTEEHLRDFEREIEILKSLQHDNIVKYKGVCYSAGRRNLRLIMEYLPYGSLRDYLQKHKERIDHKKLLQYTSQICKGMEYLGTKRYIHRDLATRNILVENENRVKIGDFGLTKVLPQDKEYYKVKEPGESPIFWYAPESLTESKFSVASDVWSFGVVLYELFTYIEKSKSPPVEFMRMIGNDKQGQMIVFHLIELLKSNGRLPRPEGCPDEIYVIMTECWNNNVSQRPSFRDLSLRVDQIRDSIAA

Regarding `N#C/C(=C\c1ccc(O)c(O)c1)C(=O)NCc1ccccc1` [tyrphostin B42], the “Inhibition of IL-12 induced tyrosine phosphorylation and activation of JAK-2 kinase” value at JAK-2 kinase was “inhibit”. In [1], the “Inhibition of lymphocyte adhesion to inflamed vessels” value was “effective inhibitor”.
Turning to `Cc1cc(C)c(C=C2C(=O)Nc3ccccc32)[nH]1` [Compound 226, 3-(3,5-dimethyl-1H-pyrrol-2-ylmethylene)-1,3-dihydro-indol-2-one], the “AUC (mean) of the disease score” value in test [2] (setting [5]) is recorded as 1.8; in test [2] (setting [6]), 21.2; in [2] (setting [7]), 19.6; in [2] (setting [8]), 4.6; in test [2] (setting [9]), 0.6; in [2] (setting [10]), 11.9. Also, the results for the “AUC (mean) of the disease score” value in test [2] (setting [11]), in test [2] (setting [12]) and in test [3] (setting [13]) were 6.6, 21.9 and 2.65, respectively. Further, the “inhibition (%)” value in test [2] (setting [5]) came to 90%; in test [2] (setting [6]), 17%; in [2] (setting [7]), 23%; in test [2] (setting [8]), 82%; in test [2] (setting [9]) it was 98%; in [2] (setting [10]), 70%. In addition, the “inhibition (%)” value in test [2] (setting [11]) worked out at 83%; in test [2] (setting [12]) it was 65%; in test [3] (setting [13]), 83%. For the same compound, in test [2] (SJL/J mice, PLP139-153, doses as in tables 1 and 3), the “Inhibition of EAE compared with the suspension vehicle group (in words)” value is recorded as “significantly inhibit”. Besides, the “Effect on development of EAE in prolonged experiments (in words)” value in test [2] (experiments 3 and 4, prolonged with one and two weeks) is “delays development of EAE rather than prevents the disease”. The “IL-2 production of restimulated spleen cells after in vivo dosing” value with IL-2 (50 mg/kg i.p. daily for 10 days, spleen cells day 10, PLP139-153, 3 days culture) was “markedly inhibited”. In addition, the “IL-2 production of cells from suspension vehicle treated mice on in vitro incubation with compound” value with IL-2 (10^−7 M in vitro for 3 days) is “did not inhibit”. Moreover, in the test on IL-2 (example 6, 50 mg/kg i.p. daily for 10 days, vs vehicle treated group, listed as compound 226), the “Level of antigen-specific IL-2 production of spleen cells” value is recorded as “clearly reduced”. For the same compound, the “Level of antigen-specific IFN-γ production of spleen cells” value in the test on IFN-γ is “clearly reduced”. The “Level of antigen-specific IL-6 production of spleen cells” value with IL-6 is listed as “clearly reduced”. Further, the “Level of antigen-specific IL-17 production of spleen cells” value in the test on IL-17 is “clearly reduced”. The “Effect on disease development (in words)” value in [3] (MOG35-55, 50 mg/kg i.p.) is on record as “significant effect on disease development”. The “Genes on the Atlas MicroArray differentially expressed, treated vs control mice” value in [4] (day 7, daily dosing from day 0) is recorded as “Approximately 1.5%”. Besides, the “Expression of genes encoding adhesion molecules (lymphocyte antigens 6 locus D, 6 locus E, 84)” value in test [4] (day 7, treated vs control mice) is on record as “upregulated”. Also, the “Expression of genes encoding interleukin 1 receptor, interleukin 10 receptor alpha, TNF receptor and TNF receptor-associated factor 1” value in [4] (day 7, treated vs control mice) is “downregulated”.
